Laboratory results reported in ChEMBL document CHEMBL3227932, “Conformations, DNA binding parameters, and antileukemic activity of certain cytotoxic protoberberine alkaloids” (J Med Chem, 1979).
Values after ≈ are worked out from the molar mass of the structure shown.

Key:
KB = experiment: Cytotoxicity against human KB cells; assay type: functional; conditions: read-out: ED50 (the source's name)
P388 [1] = experiment: Antitumor activity against mouse P388 cells allografted in mouse at 6.25 mg/kg; assay type: functional
Mus musculus [2] = experiment: Toxicity in mouse P388 cells allografted mouse at 6.25 mg/kg; assay type: organism-based; parameters: dose 6.25 mg/kg; conditions: in vivo
Mus musculus [3] = experiment: Toxicity in mouse P388 cells allografted mouse at 50 mg/kg; assay type: organism-based; parameters: dose 50 mg/kg; conditions: in vivo
P388 [4] = experiment: Antitumor activity against mouse P388 cells allografted in mouse at 3.13 mg/kg; assay type: functional
Mus musculus [5] = experiment: Toxicity in mouse P388 cells allografted mouse at 400 mg/kg; assay type: organism-based; parameters: dose 400 mg/kg; conditions: in vivo
Mus musculus [6] = experiment: Toxicity in mouse P388 cells allografted mouse at 100 mg/kg; assay type: organism-based; parameters: dose 100 mg/kg; conditions: in vivo
Mus musculus [7] = experiment: Toxicity in mouse P388 cells allografted mouse at 200 mg/kg; assay type: organism-based; parameters: dose 200 mg/kg; conditions: in vivo
Mus musculus [8] = experiment: Toxicity in mouse P388 cells allografted mouse at 3.13 mg/kg; assay type: organism-based; parameters: dose 3.13 mg/kg; conditions: in vivo
P388 [9] = experiment: Antitumor activity against mouse P388 cells allografted in mouse at 12.5 mg/kg; assay type: functional
Mus musculus [10] = experiment: Toxicity in mouse P388 cells allografted mouse at 12.5 mg/kg; assay type: organism-based; parameters: dose 12.5 mg/kg; conditions: in vivo
Mus musculus [11] = experiment: Toxicity in mouse P388 cells allografted mouse at 25 mg/kg; assay type: organism-based; parameters: dose 25 mg/kg; conditions: in vivo
P388 [12] = experiment: Antitumor activity against mouse P388 cells allografted in mouse at 25 mg/kg; assay type: functional
P388 [13] = experiment: Antitumor activity against mouse P388 cells allografted in mouse at 200 mg/kg; assay type: functional
P388 [14] = experiment: Antitumor activity against mouse P388 cells allografted in mouse at 100 mg/kg; assay type: functional
P388 [15] = experiment: Antitumor activity against mouse P388 cells allografted in mouse at 50 mg/kg; assay type: functional
P388 [16] = experiment: Antitumor activity against mouse P388 cells allografted in mouse at 400 mg/kg; assay type: functional

| SMILES | EC50 (KB) [µg/mL] | T/C (P388 [1]) | Activity (Mus musculus [2]) | Activity (Mus musculus [3]) | Activity (Mus musculus [5]) | Activity (Mus musculus [6]) | Activity (Mus musculus [7]) | T/C (P388 [9]) | Activity (Mus musculus [10]) | other results |
| --- | --- | --- | --- | --- | --- | --- | --- | --- | --- | --- |
| COc1cc2c(cc1OC)[C@H](CO)[C@H]1c3cc4c(cc3CCN1C2)OCO4 (relative stereo) | > 100 |  |  |  |  |  |  |  |  |  |
| COc1cc2c(cc1OC)-c1c(C)c3ccc(OC)c(OC)c3c[n+]1CC2.[Cl-] | 4.76 | 102 | Non-toxic | Toxic | Toxic | Toxic | Toxic | 107 | Non-toxic | T/C (P388 [4]): 105; Activity (Mus musculus [8]): Non-toxic |
| COc1cc2c(cc1OC)[C@H](C)[C@H]1c3cc4c(cc3CCN1C2)OCO4 (relative stereo) | > 100 |  |  |  |  |  |  |  |  |  |
| COc1cc2c[n+]3c(c(C)c2cc1OC)-c1cc2c(cc1CC3)OCO2.[I-] | 2.98 | 106 | Non-toxic |  | Toxic | Toxic | Toxic | 113 | Non-toxic | Activity (Mus musculus [11]): Non-toxic; T/C (P388 [12]): 116 |
| COc1cc2c(cc1OC)[C@@H](CO)[C@H]1c3cc4c(cc3CCN1C2)OCO4 (relative stereo) | 2.65 (≈ 7.17 µM) |  |  | Non-toxic | Non-toxic | Non-toxic | Non-toxic |  |  | T/C (P388 [13]): 105; T/C (P388 [14]): 98; T/C (P388 [15]): 115; T/C (P388 [16]): 129 |
| COc1cc2c(cc1OC)[C@@H](C)[C@H]1c3cc4c(cc3CCN1C2)OCO4 (relative stereo) | 0.47 (≈ 1.33 µM) |  |  |  |  |  |  |  |  |  |
